Results from paper PMC6006164, “Natural cyclopeptide RA-V inhibits the NF-κB signaling pathway by targeting TAK1” (Cell Death & Disease, 2018).

What was measured:
Type in all cases: cell-based
TAK1–TAB2 interaction [1] = target: T1, TAK1–TAB2 interaction (Homo sapiens, UniProt O43318); assay: Co-immunoprecipitation of TAK1 and TAB2; settings: HEK293T, Flag-TAK1 and HA-TAB2; RA-V 6 h
T1 construct: expressed in transfected cells; host or cells: HEK293T
T1 sequence (O43318 1-579 isoform O43318-2): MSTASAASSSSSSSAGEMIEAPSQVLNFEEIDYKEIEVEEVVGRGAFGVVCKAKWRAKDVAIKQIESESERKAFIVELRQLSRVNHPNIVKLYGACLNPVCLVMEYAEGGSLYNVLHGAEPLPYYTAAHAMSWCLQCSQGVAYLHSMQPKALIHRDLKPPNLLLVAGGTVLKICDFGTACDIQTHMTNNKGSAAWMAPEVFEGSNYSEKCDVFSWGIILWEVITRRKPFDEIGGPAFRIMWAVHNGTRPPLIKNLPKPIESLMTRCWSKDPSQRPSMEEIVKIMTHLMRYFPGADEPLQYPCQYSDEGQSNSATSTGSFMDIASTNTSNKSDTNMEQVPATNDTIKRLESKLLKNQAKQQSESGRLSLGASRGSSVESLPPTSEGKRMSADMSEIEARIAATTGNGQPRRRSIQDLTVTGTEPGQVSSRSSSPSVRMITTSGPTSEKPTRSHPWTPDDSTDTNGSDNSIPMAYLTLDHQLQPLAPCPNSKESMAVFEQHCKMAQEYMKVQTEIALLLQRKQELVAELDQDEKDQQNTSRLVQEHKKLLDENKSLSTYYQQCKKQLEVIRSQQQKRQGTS
Procedure: (§1) Fig. 4 RA-V blocks the interaction between TAK1 and TAB2. a RA-V blocked the exogenous TAK1–TAB2 interaction. HEK293T cells were transfected with Flag-TAK1 and HA-TAB2 for 24 h and then incubated with various concentrations of RA-V for 6 h. […] HEK293T cells were transfected with Flag-TAK1 and HA-TRAF6 or HA-TAB1 for 24 h and then incubated with RA-V (800 nM) for 6 h. The cell lysates were immunoprecipitated with HA antibody, and immunoblots were performed with the indicated antibodies. d RA-V blocked the endogenous TAK1–TAB2 interaction. HEK293T (left) or RAW264.7 (right) cells were incubated with 800 nM RA-V for 6 h and stimulated with 10 ng/mL TNF-α for 2 h or 1 μg/mL LPS for 3 h, respectively. The cell lysates were immunoprecipitated with TAK1 antibody or control IgG and then immunoblotted with the indicated antibodies. Each experiment was repeated at least three times
(§2) The cell lysates were prepared using radioimmunoprecipitation (RIPA) buffer containing 50 mM Tris-HCl pH 7.4, 150 mM NaCl, 1 mM ethylenediaminetetraacetic acid, 1% Triton X-100, 0.5% deoxycholate, and 0.1% sodium dodecyl sulfate, to which protease inhibitors (Roche) were added. The lysates were incubated with the indicated antibodies before adding 20 μL of Protein A/G agarose for 2 h. After four washes with the same buffer, the immunoprecipitates were boiled in 2 × SDS loading buffer.

TAK1–TAB2 interaction [2] = assay: Co-immunoprecipitation of TAK1 and TAB2; settings: HEK293T or RAW264.7; 800 nM RA-V 6 h
Procedure: as §1, §2

[3] = tested on: TAK1, JNK, ERK, p38, and IKKα/β phosphorylation; assay: Western blot of TAK1 and downstream kinase phosphorylation; settings: HeLa; RA-V 12 h, 10 ng/mL TNF-α 10 min
Procedure: HEK293T cells were transfected with TAK1-N or TAK1-C for 24 h. The cells lysates were incubated with CB12 or biotin and precipitated with streptavidin-coated sepharose and were analyzed by immunoblotting with Flag antibody. b The model for RA-V binding to the crystal structure of the TAK1–TAB1 fusion protein (PDB 4GS6). The blue dotted lines represent the hydrogen bonds between RA-V (green) and TAK1–TAB1. c RA-V probably binds the ATP-binding pocket of TAK1. HEK293T cells were transfected with TAK1 for 24 h, and then the cell lysates were incubated with biotin or CB12 before precipitation with streptavidin agarose. The immunoprecipitates were treated with ATP or (5Z)-7-oxozeaenol and western blotted with Flag antibody. d RA-V inhibits TAK1, JNK, ERK, p38, and IKKα/β phosphorylation. HeLa cells were incubated with various concentrations of RA-V for 12 h and then treated with 10 ng/mL TNF-α for 10 min. The cell lysates were prepared and western blotted with the indicated antibodies. Each experiment was repeated at least three times
For western blot analysis, the samples were equally subjected to sodium dodecyl sulfate polyacrylamide gel electrophoresis (SDS-PAGE) and transferred to polyvinylidene difluoride membranes (Millipore). […] The protein bands were detected with the SuperSignal West Pico Chemiluminescent Substrate (Pierce).

RAW264.7 cells = assay: LPS-induced NF-κB activation in RAW264.7 cells; settings: 1 μg/mL LPS 3 h, dose-dependent
Procedure: Fig. 1 RA-V inhibits TNF-α- and LPS-induced activation of NF-κB. a Chemical structure of RA-V. b RA-V inhibited the NF-κB signaling pathway in a dose-dependent manner. HEK293T or HeLa cells were transfected with the 5 × κB-luciferase and pTK-Renilla reporters. Twenty-four hours after transfection, the cells were incubated with various concentrations of RA-V for 6 h, and then treated with 10 ng/mL TNF-α for 2 h before the luciferase activity assay and MTT assay. c RA-V reduced TNF-α-induced expression of NF-κB target genes. HEK293T or HeLa cells were treated with various concentrations of RA-V for 24 h and stimulated with 10 ng/mL TNF-α for 2 h. The expression of the NF-κB target genes, IL-8, MCP-1, and E-selectin was measured by quantitative RT-PCR and normalized to GADPH expression. d RA-V inhibited TNF-α-induced p65 phosphorylation, IκBα phosphorylation and IκBα degradation. HEK293T or HeLa cells were incubated with various concentrations of RA-V for 24 h and treated with 10 ng/mL TNF-α for 10 min. The cell lysates were prepared and subjected to western blot analysis with the indicated antibodies. e RA-V inhibited TNF-α-induced IL-8 production. […] The expression of IL-6 was measured. h RA-V inhibited LPS-induced p65 phosphorylation, IκBα phosphorylation. […] The protein expression was measured. i RA-V inhibited LPS-induced IL-6 production. […] The expression of IL-6 was measured.

Substance: RA-V
- interaction between exogenously expressed TAK1 and TAB2 (TAK1–TAB2 interaction [1]): dose-dependently blocked
- endogenous TNF-α- or LPS-induced TAK1–TAB2 interaction (TAK1–TAB2 interaction [2]): inhibited the interaction
- phosphorylation of TAK1 and of IKKα/β, JNK, ERK, and p38 [3]: inhibited
- LPS-induced IL-6 production, IκBα phosphorylation and p65 phosphorylation (RAW264.7 cells): inhibited
